{"source": "paper PMC11220827", "about": "(Frontiers in Pharmacology, 2024)", "key": {"TRβ [1]": {"target": "T1, TRβ (Homo sapiens, UniProt P10828)", "T1 sequence (P10828 1-461)": "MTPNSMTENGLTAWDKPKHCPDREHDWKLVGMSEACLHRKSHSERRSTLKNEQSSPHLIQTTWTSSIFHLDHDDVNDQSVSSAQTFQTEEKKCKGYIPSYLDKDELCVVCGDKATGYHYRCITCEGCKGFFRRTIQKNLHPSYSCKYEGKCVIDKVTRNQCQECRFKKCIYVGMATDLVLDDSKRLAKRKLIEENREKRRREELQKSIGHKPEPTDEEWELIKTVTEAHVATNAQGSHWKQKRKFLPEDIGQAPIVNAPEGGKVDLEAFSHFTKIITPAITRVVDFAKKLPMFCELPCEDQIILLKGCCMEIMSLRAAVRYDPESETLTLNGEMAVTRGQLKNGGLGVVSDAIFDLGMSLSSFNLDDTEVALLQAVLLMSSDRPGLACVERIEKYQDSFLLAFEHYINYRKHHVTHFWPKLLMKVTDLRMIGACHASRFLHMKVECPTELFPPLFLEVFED", "procedure": "(§1) using the U2-OS based CALUX cytotox bioassay. The cytotoxicity of each test chemical was assessed using the U2-OS based cytotoxicity CALUX bioassay. Concentrations causing >20% reduction of luminescence were considered cytotoxic.\n(§2) cytotoxicity (relative induction in the cytotoxicity CALUX bioassay > 80%) were used for final\nevaluation of analysis results.\n(§3) induction in the cytotox CALUX bioassay > 80%) were used for final evaluation of analysis results.\n(§4) All analysis results were expressed in molar (M) final in well.\n(§5) For determination of the (anti-)ERα, (anti-)AR and (anti-)TRβ CALUX activities, CALUX cells were\n(§6) seeded in assay medium. Following exposure of the CALUX cells to serial dilutions of the\n(§7) compounds in triplicate for 24 h, the induction of luciferase production was quantified by measuring\n(§8) luminescence following addition of the substrate luciferin. For antagonist assays, a fixed\n(§9) concentration of assay agonist was present in each well, to generate a basal signal. On each plate, a\n(§10) complete calibration curve for each respective bioassay was also analysed using the relevant reference\n(§11) compounds. For the analyses in the presence of rat liver S9, 0.03% (v/v) of PB/BNF induced rat liver\n(§12) S9 mix (including NADPH and an NADPH-regenerating system) was added to the cells directly after\n(§13) addition of the compounds, which remained there for the duration of the exposure period (24 h) (van\n(§14) Relative light units (RLUs) of the CALUX assays were analysed as follows. For agonist assays,\n(§15) background values (exposure to DMSO only) were subtracted, and the maximum activity of the\n(§16) assay’s reference compound was set to 100%. For antagonist assays, the basal signal (exposure to fixed concentration of agonist only) was set to 100%. Activity of the samples was scaled accordingly,\n(§17) resulting in expression of the data as “percentage of maximum reference response”. Graphs were\n(§18) generated using the statistical software package GraphPad Prism V5.03. Using these graphs, lowest\neffect concentrations (LOECs) and PC50 concentrations were determined; LOEC is defined as the […]"}, "[2]": {"target": "T2, human thyroid peroxidase (hTPO) (Homo sapiens, UniProt P07202)", "T2 sequence (P07202 19-933)": "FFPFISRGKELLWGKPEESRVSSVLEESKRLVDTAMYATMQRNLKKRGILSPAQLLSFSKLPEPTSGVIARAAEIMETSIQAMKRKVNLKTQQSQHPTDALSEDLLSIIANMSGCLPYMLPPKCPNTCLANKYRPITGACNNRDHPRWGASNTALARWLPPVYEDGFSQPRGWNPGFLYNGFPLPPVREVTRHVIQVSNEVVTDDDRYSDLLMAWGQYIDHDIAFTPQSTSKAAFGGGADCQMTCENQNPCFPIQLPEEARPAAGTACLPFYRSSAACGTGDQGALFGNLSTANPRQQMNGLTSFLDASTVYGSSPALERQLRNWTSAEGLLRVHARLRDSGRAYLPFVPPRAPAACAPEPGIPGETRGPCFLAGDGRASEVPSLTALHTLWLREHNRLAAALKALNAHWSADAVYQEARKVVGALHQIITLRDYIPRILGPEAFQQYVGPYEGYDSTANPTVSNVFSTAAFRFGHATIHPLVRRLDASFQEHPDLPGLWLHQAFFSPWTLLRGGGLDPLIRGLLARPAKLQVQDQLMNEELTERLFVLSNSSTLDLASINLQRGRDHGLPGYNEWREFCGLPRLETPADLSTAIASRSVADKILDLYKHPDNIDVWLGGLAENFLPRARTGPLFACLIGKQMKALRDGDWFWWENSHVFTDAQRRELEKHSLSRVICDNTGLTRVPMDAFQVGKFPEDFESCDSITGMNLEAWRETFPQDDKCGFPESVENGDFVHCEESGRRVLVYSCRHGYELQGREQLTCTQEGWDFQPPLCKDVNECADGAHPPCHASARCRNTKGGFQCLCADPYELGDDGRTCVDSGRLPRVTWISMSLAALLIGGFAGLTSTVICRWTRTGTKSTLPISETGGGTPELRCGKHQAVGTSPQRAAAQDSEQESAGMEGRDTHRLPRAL", "procedure": "hTPO was derived from Nthy-ori 3-1 cells. Cell lysate containing hTPO in Glycine-NaOH buffer (pH\n9.0) was incubated for 30 minutes at 37°C in the presence of serial dilutions of the compounds in\nDMSO (1% compound stock in incubation mixture).\nwas measured on a Berthold luminometer.\nPreincubation with rat liver S9 fraction\nTo assess the effect of metabolism on the activity of the test\ncompound for these assays, preincubations with rat liver S9 were performed."}, "HepG2 and MCF-7 cells": {"tested_on": "HepG2 and MCF-7 cells", "details": "24 h"}, "rats": {"tested_on": "rats", "details": "cited from earlier work"}, "[3]": {"tested_on": "Syrian Hamster Embryo (SHE) cells", "details": "ref SCCS 2022; cited from earlier work"}, "mice [4]": {"tested_on": "mice", "details": "oral administration; ref SCCS 2022; cited from earlier work"}, "mice [5]": {"tested_on": "mice", "details": "in the diet; ref SCCS 2022; cited from earlier work"}, "TRβ [6]": {"target": "T1, TRβ", "experiment": "TRβ CALUX assay (thyroid)", "procedure": "as §1, §2\nevaluation of analysis results.\nas §3, §4, §5, §6, §7, §8, §9, §10, §11, §12, §13, §14, §15, §16, §17, §18\n(§19) effect concentrations (LOECs) and PC50 concentrations were determined; LOEC is defined as the\n(§20) maximum reference compound activity for agonist assays, and 20% of the maximum reference\n(§21) compound activity for antagonist assays. The PC50 is defined as the concentration where the activity\n(§22) of the sample equals 50% of the maximum activity of the assay’s reference compound."}, "EGFR Human RTK Kinase": {"target": "EGFR Human RTK Kinase (Homo sapiens, UniProt P00533)", "sequence (P00533 25-1210)": "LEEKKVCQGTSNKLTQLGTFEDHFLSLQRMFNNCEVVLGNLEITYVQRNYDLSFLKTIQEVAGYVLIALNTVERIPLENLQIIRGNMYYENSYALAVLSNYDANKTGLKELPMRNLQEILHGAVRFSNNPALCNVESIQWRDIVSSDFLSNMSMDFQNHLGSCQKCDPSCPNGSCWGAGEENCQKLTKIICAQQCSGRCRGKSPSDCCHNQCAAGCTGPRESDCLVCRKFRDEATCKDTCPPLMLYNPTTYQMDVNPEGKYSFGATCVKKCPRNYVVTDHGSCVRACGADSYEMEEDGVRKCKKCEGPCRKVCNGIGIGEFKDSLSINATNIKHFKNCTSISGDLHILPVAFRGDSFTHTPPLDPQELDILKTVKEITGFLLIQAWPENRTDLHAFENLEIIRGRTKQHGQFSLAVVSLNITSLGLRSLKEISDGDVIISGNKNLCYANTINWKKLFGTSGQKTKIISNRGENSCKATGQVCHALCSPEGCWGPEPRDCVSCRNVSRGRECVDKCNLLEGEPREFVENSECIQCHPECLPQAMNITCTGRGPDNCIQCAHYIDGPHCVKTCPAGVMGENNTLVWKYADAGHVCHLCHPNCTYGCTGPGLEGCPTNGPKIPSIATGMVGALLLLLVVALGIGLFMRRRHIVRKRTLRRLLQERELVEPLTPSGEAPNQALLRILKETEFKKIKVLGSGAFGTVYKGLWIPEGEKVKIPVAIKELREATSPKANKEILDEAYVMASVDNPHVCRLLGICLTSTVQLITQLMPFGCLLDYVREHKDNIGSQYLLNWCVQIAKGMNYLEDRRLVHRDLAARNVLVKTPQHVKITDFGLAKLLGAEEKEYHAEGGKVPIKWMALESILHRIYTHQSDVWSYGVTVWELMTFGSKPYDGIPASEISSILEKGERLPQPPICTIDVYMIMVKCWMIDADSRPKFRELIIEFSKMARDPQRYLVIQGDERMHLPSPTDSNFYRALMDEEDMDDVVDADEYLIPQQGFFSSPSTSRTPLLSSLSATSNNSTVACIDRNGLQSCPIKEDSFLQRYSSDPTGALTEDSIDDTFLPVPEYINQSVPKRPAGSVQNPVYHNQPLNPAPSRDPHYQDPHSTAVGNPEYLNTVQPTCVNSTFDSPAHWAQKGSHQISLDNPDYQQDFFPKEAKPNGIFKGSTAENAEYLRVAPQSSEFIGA", "experiment": "biochemical", "details": "read-out: EGFR Human RTK Kinase Enzyme activity: % inhibition @10 µM", "procedure": "Chemicals that are flagged for a target are tested in follow-up dose-response assays to establish potency of the interaction.\nas §14, §15, §16, §17, §18, §19, §20, §21, §22\nthe test compound was divided by the amount of estrogens and androgens produced by the solvent\ncontrol-exposed cells. A sample was considered ‘active’ if it decreased the hormone production 0.8-\nPharmacology profiling assays\ntargets. The list of targets included the original panel of 44 targets (including receptors, ion channels, […]"}, "[7]": {"details": "for BER, Cmax, total CI5%: PoD 10 nM", "source_text": "For human exposure, the aim is to estimate a safe dose when used in a body lotion or face cream. […] Therefore, metabolism was considered by incorporating a model to characterize the rate of metabolism and then fitted it to the metabolism measured in ex vivo viable skin.\nAn additional safety factor of 3.3 was applied to account for intra-individual variability."}, "[8]": {"experiment": "Measured plasma concentrations of daidzein from dietary intake", "type": "in vivo, human", "details": "PoD 10 nM / 3.14 µM", "text": "Daidzein is present in soy-derived foods and is consumed in large amounts in Asian countries."}, "Estrogen ERα (h) [9]": {"target": "T3, Estrogen ERα (h) (Homo sapiens, UniProt P03372)", "T3 sequence (P03372 whole entry)": "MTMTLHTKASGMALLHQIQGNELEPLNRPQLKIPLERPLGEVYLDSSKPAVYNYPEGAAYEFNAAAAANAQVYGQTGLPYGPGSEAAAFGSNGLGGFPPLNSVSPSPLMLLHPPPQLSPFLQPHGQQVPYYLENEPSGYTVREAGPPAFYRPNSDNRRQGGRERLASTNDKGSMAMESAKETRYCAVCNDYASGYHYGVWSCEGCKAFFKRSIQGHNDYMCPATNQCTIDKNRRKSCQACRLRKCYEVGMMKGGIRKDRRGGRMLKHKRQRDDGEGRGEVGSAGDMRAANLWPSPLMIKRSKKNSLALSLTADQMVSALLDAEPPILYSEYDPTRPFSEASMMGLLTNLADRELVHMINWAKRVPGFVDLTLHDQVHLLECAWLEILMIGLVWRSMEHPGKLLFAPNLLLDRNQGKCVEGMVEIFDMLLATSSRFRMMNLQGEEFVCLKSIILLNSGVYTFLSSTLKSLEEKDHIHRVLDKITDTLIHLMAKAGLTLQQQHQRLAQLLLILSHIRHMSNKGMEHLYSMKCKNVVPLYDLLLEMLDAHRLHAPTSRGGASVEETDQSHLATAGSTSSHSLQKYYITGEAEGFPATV", "details": "pharmacology profiling; LOEC = 10% of maximum reference compound activity"}, "ERα receptor": {"target": "ERα receptor (Homo sapiens, UniProt P03372)", "sequence (P03372 whole entry)": "as above"}, "Androgen pathway": {"tested_on": "Androgen pathway", "set-up": "method as in ToxCast", "details": "ref ToxCast, cited from earlier work"}, "THRα": {"tested_on": "THRα", "set-up": "method as in ToxCast", "details": "ref ToxCast; cited from earlier work"}, "[10]": {"details": "in vivo; cited from earlier work"}, "Estrogen ERα (h) [11]": {"target": "T3, Estrogen ERα (h)", "experiment": "biochemical", "details": "read-out: Estrogen ERα (h) (agonist RL): % inhibition @10 µM"}, "[12]": {"details": "+S9 (preincubation with rat liver S9)"}}, "note": "Several values for one entry are separate records, joined by “and”; a condition that tells them apart may be missing. Equal entries are not always repeated. Entries after “also recorded” stand apart in the source; their conditions may differ. Where two headings read alike, the source gives them in different places. Wherever Androgen pathway: Cell Proliferation, Call is given: key: Pos = positive result; Neg = negative result; Inc = uncertain/inconclusive result. Wherever Androgen pathway: Dimerization, Call is given: key: Pos = positive result; Neg = negative result; Inc = uncertain/inconclusive result. Wherever Androgen pathway: Receptor binding, Call is given: key: Pos = positive result; Neg = negative result; Inc = uncertain/inconclusive result. Wherever Androgen pathway: Reporter protein Agonist, Call is given: key: Pos = positive result; Neg = negative result; Inc = uncertain/inconclusive result.", "data": [{"smiles": "O=c1c(-c2ccc(O)cc2)coc2cc(O)cc(O)c12", "note": "[Genistein, 5,7-DIHYDROXY-3-(4-HYDROXYPHENYL)-4-BENZOPYRONE]", "values": [{"measurement": "Anti-TRß antithyroid LOEC, +S9", "setting": "TRβ [1]; +S9 (rat liver)", "value": ">−5", "unit": "Log M"}, {"measurement": "Anti-TRß antithyroid LOEC, −S9", "setting": "TRβ [1]; −S9", "value": ">−5", "unit": "Log M"}, {"measurement": "LOEC for hTPO inhibition", "setting": "[2]", "value": "19 ± 8.9", "unit": "µM"}, {"measurement": "TPO LOEC, Inhibition", "setting": "[2]", "value": 19, "unit": "µM"}, {"measurement": "hTPO inhibition (thyroid) LOEC, +S9", "setting": "[2]; [12]", "value": ">−4.7", "unit": "Log M"}, {"measurement": "hTPO inhibition (thyroid) LOEC, −S9", "setting": "[2]; −S9", "value": "−4.7", "unit": "Log M"}, {"measurement": "Steroidogenesis (AR) Testosterone LOEC, +S9", "setting": "H295R cells; [12]", "value": "−5.7", "unit": "Log M"}, {"measurement": "LOEC, androgen synthesis (impaired)", "setting": "H295R cells; H295R", "value": "3.2 × 10^−6 ± 0 M"}, {"measurement": "Steroidogenesis (AR) Testosterone LOEC, −S9", "setting": "H295R cells; −S9", "value": "−5.5", "unit": "Log M"}, {"measurement": "Metabolism by HepG2 or MCF-7 cells", "setting": "HepG2 and MCF-7 cells", "value": "metabolized by both cell types"}, {"measurement": "NOAEL, 13 weeks", "setting": "rats; male and female rats, feed 0, 5, 50 or 500 mg/kg/day, ref McClain et al. 2006", "value": 50, "unit": "mg/kg/day"}, {"measurement": "NOAEL, 52 weeks", "setting": "rats; male and female rats, feed, based on mild hepatic effects, ref McClain et al. 2006", "value": 50, "unit": "mg/kg/day"}, {"measurement": "NOAEL from repeat dose studies", "setting": "rats; ref McClain et al., 2006", "value": "above 50 mg/kg/day"}, {"measurement": "Cell transformation assay (SHE cells) result", "setting": "[3]", "value": "one was positive"}, {"measurement": "In vivo DNA damage/Comet assay result", "setting": "mice [4]", "value": "Negative in mice after oral administration"}, {"measurement": "P53-/- Mouse Tumorigenesis Assay result", "setting": "mice [5]", "value": "negative"}, {"measurement": "TRß thyroid LOEC, +S9", "setting": "TRβ [6]; +S9 (rat liver)", "value": ">−5", "unit": "Log M"}, {"measurement": "TRβ Agonist/antagonist effect", "setting": "TRβ [6]; CALUX", "value": "did not activate or antagonize the thyroid receptor-β; also recorded: No effect"}, {"measurement": "TRß thyroid LOEC, −S9", "setting": "TRβ [6]; −S9", "value": ">−5", "unit": "Log M"}]}, {"smiles": "O=c1c(-c2ccc(O)cc2)coc2cc(O)ccc12", "note": "[Daidzein, DAIDZEIN]", "values": [{"measurement": "inhibition at 10 µM", "setting": "EGFR Human RTK Kinase", "value": 17.8, "unit": "%"}, {"measurement": "BERs derived using unbound plasma concentrations", "setting": "[7]; 0.02% daidzein", "value": "100–250"}, {"measurement": "BER, Cmax, total CI5%", "setting": "[7]; body lotion with 0.02% daidzein", "value": "10/0.68 = 14.7"}, {"measurement": "BER, Cmax, total CI5%", "setting": "[7]; body lotion with 0.1% daidzein", "value": "10/3.37 = 3.0"}, {"measurement": "BER, highest measured dietary plasma concentration", "setting": "[8]", "value": 0.003}, {"measurement": "ERα LOEC (binding to receptor)", "setting": "Estrogen ERα (h) [9]", "value": "35 nM and 35.2 nM"}, {"measurement": "LOEC, ERα CALUX assay", "setting": "ERα receptor", "value": "110 ± 18", "unit": "nM"}, {"measurement": "ERα receptor LOEC, +S9", "setting": "ERα receptor; +S9 (rat liver)", "value": "−7.0", "unit": "Log M"}, {"measurement": "LOEC, ERα + S9", "setting": "ERα receptor; CALUX ERα, with rat liver S9", "value": "100 ± 0.0 nM and 100 ± 0 nM and 100 nM"}, {"measurement": "LOEC, ERα − S9", "setting": "ERα receptor; CALUX ERα, without S9", "value": 110, "unit": "nM"}, {"measurement": "NOEC (in vitro PoD) = ERα CALUX LOEC divided by 3", "setting": "ERα receptor; estimated from LOEC + S9", "value": 33, "unit": "nM"}, {"measurement": "ERα receptor LOEC, −S9", "setting": "ERα receptor; −S9", "value": "−6.9", "unit": "Log M"}, {"measurement": "Androgen pathway: Cell Proliferation, Call", "setting": "Androgen pathway", "value": "Neg"}, {"measurement": "Androgen pathway: Dimerization, Call", "setting": "Androgen pathway", "value": "Neg"}, {"measurement": "Androgen pathway: Receptor binding, Call", "setting": "Androgen pathway", "value": "Neg"}, {"measurement": "Androgen pathway: Reporter protein Agonist, Call", "setting": "Androgen pathway", "value": "Neg"}, {"measurement": "Androgen pathway: Reporter protein Antagonist, Call", "setting": "Androgen pathway", "value": "Inc"}, {"measurement": "Androgen pathway: mRNA induction, Call", "setting": "Androgen pathway", "value": "Neg"}, {"measurement": "AC50", "setting": "Androgen pathway; read-out: Androgen pathway: Reporter protein Antagonist, AC50", "value": 36.1, "unit": "µM"}, {"measurement": "Thyroid pathway: Receptor binding (THRα), Call", "setting": "THRα", "value": "Neg (Neg = negative result)"}, {"measurement": "Highest measured plasma concentration", "setting": "[10]", "value": 3.14, "unit": "µM"}, {"measurement": "inhibition at 10 µM", "setting": "Estrogen ERα (h) [11]", "value": 100, "unit": "%"}]}]}
